Laboratory results published in publication PMC11413853, “Discovery of VU6007496: Challenges in the Development of an M1 Positive Allosteric Modulator Backup Candidate” (ACS Chemical Neuroscience, 2024).
“Also recorded” adds a separate entry of the source.

Tested on: layer V medial prefrontal cortex (mPFC)
Experiment: Field electrophysiology, layer V medial prefrontal cortex slices
Parameters: species or system mouse
Conditions: 3 μM bath application 20 min; recorded layer V, stimulation layer II/III
Protocol: PAMs 11 and 12 were next evaluated in our rat IV plasma: brain level cassette paradigm (0.25 mg/kg compound, 1 mg/kg total dose, 10.1% EtOH:40.4% PEG400:49.5% DMSO) sampled at a set 15 min time point to assess CNS penetration. […] As mice are the most sensitive species to cholinergic mechanisms,[11],[13],[23],[24] we placed a high-throughput phenotypic seizure liability assay into the work-flow in which potent ago-PAMs, such as 2–5,[8]−[15] display robust Racine scale 4/5 behavioral convulsions that develop within minutes of dosing and last for the 3 h duration of the study. […] In parallel, we performed electrophysiology studies in mouse native tissue layer V medial prefrontal cortex (mPFC). […]
Rats were habituated for 10 min for 2 consecutive days in an empty novel object recognition (NOR) arena consisting of dark-colored plexiglass box (40 × 64 × 33 cm3). […] The rats were then returned to the arena in which one of the previously exposed (familiar) objects was replaced by a novel object and were video recorded for 5 min while they explored the two objects. Time spent exploring each object was scored by an observer blinded to the experimental conditions and the recognition index was calculated as [(time spent exploring novel object) – (time spent exploring familiar object)]/total time exploring objects. […]

Compound: Cn1ccc(-c2ccc(Cc3cc(C(=O)NC4CCOCC4)nc4ccn(C)c34)cc2)n1 [compound 11]
- change in fEPSP slope (long-term depression): did not induce significant changes; also recorded: no significant change in fEPSP slope
